The results in this text go back to patent US8501767B2, “Imidazopyridines and imidazopyrimidines as HIV-1 reverse transcriptase inhibitors” (CSIR, priority 2008, dated 2013).

SMILES strings stand for the structures.

Assay [1] concerns HIV-1. Kind of assay: Whole cell PBMC anti-HIV assay (human PBMCs, supernatant reverse transcriptase activity). The assay is classed as cell-based. The conditions noted are these: Human immunodeficiency virus 1, PBMC. How it is done:
Fresh human PBMCs, seronegative for HIV and HBV, were isolated from screened donors (Interstate Blood Bank, Inc. Memphis, Tenn.). Cells were pelleted/washed 2-3 times by low speed centrifugation and re-suspension in PBS to remove contaminating platelets. The Leukophoresed blood was then diluted 1:1 with Dulbecco's Phosphate Buffered Saline (DPBS) and layered over 14 mL of Lymphocyte Separation Medium (LSM; Cellgro® by Mediatech, Inc.; density 1.078+/−0.002 g/ml; Cat.#85-072-CL) in a 50 mL centrifuge tube and then centrifuged for 30 minutes at 600×g. Banded PBMCs were gently aspirated from the resulting interface and subsequently washed 2× with PBS by low speed centrifugation. […]
For the standard PBMC assay, PHA-P stimulated cells from at least two normal donors were pooled (mixed together), diluted in fresh medium to a final concentration of 1×10^6 cells/mL, and plated in the interior wells of a 96 well round bottom microplate at 50 μl/well (5×10^4 cells/well) in a standard format developed by the Infectious Disease Research department of Southern Research Institute. Pooling (mixing) of mononuclear cells from more than one donor is used to minimize the variability observed between individual donors, which results from quantitative and qualitative differences in HIV infection and overall response to the PHA and IL-2 of primary lymphocyte populations. […]

The test system of assay [2] is HIV-1. Kind of assay: Whole cell MAGI anti-HIV assay (MAGI-R5 cells, LTR-β-galactosidase reporter). The format is cell-based. The settings on record: Human immunodeficiency virus 1, MAGI.
The target in assay [3] is HIV-1 reverse transcriptase (Human immunodeficiency virus type 1 group M subtype B (isolate HXB2) (HIV-1), UniProt P04585). Kind of assay: Enzymatic assay against HIV-1 reverse transcriptase (sandwich-ELISA, ROCHE colorimetric reverse transcriptase kit). The assay is classed as biochemical. The settings on record: 4-fold serial dilutions. As for the experimental part: Enzymatic Method for Determining Activity Against Reverse Transcriptase
Biotin and DIG-labelled nucleotides are incorporated into cDNA strands polymerized on an RNA template by the action of HIV-1 reverse transcriptase. The cDNA products are bound to streptavidin-coated wells of 96-well plate inserts, and their associated DIG-moieties detected by incubation with anti-DIG antibodies conjugated to horseradish peroxidase (HRP).
In the single concentration screen, compounds are incubated with HIV-1 reverse trancriptase and substrate and the residual enzyme activity expressed as a percentage relative to a control without inhibitor.
(In general: An ELISA detects its analyte on a solid surface through an enzyme-linked reagent.)

By IC50 is commonly meant the point on the concentration scale where inhibition reaches its midpoint. Low readings indicate greater potency in that assay, high ones weaker potency in that assay.

`Clc1ccccc1-c1nc2ccccn2c1NC1CCCCC1` [Compound 8, 2-(2-chlorophenyl)-N-cyclohexylimidazo[1,2-a]pyridin-3-amine] returned an IC50 in assay [1] of 160 nM.
As for `Clc1ccccc1-c1nc2cccc(Br)n2c1NC1CCCCC1` [Compound 42, 5-bromo-2-(2-chlorophenyl)-N-cyclohexylimidazo[1,2-a]pyridin-3-amine], the IC50 in assay [2] worked out at 3150 nM; in assay [3], 4.62 µM.
On the same counts, the results for `Brc1ccccc1-c1nc2ccccn2c1NC1CCCCC1` [Compound 43, 2-(2-bromophenyl)-N-cyclohexylimidazo[1,2-a]pyridin-3-amine] are 2210 nM and 10 µM.
Take `Clc1ccccc1-c1nc2cccc(Cl)n2c1NC1CCCC1` [Compound 48, 5-chloro-2-(2-chlorophenyl)-N-cyclopentylimidazo[1,2-a]pyridin-3-amine]: in assay [3], half-maximal inhibition (IC50) was put at 5.14 µM.
`Cc1ccc(Cl)c(-c2nc3ccccn3c2NC2CCCCC2)c1F` [Compound 74, 2-(6-chloro-2-fluoro-3-methylphenyl)-N-cyclohexylimidazo[1,2-a]pyridin-3-amine]: the IC50 was found to be 2360 nM in assay [2] and 90 µM in assay [3].
Consider `Fc1ccc2nc(-c3ccccc3Cl)c(NC3CCCCC3)n2c1` [Compound 81, 2-(2-chlorophenyl)-N-cyclohexyl-6-fluoroimidazo[1,2-a]pyridin-3-amine], for which the IC50 in assay [2] was 1880 nM; in assay [3], 11.3 µM.
As to `Clc1ccc2nc(-c3ccccc3Cl)c(NC3CCCCC3)n2c1` [Compound 82, 6-chloro-2-(2-chlorophenyl)-N-cyclohexylimidazo[1,2-a]pyridin-3-amine], the results for the IC50 in assay [2] and in assay [3] were 840 nM and 14.5 µM, respectively.
As for `Clc1ccc(-c2nc3ccccn3c2NC2CCCCC2)c(Cl)c1` [Compound 89, N-cyclohexyl-2-(2,4-dichlorophenyl)imidazo[1,2-a]pyridin-3-amine], the results for the IC50 in assay [2] and in assay [3] were 2950 nM and 21.8 µM, respectively.
On the same counts, the results for `N#Cc1ccc2nc(-c3ccccc3Cl)c(NC3CCCCC3)n2c1` [Compound 96, 2-(2-chlorophenyl)-3-(cyclohexylamino)imidazo[1,2-a]pyridine-6-carbonitrile] are 630 nM and 6.6 µM.
Take `Clc1ccccc1-c1nc2ccc3ccccc3n2c1NC1CCCCC1` [Compound 97, 2-(2-chlorophenyl)-N-cyclohexylimidazo[1,2-a]quinolin-1-amine]: the midpoint of inhibition in assay [3], the IC50, lay at 7.52 µM.
Consider `Clc1ccccc1-c1nc2ccc(Br)cn2c1NC1CCCCC1` [Compound 99, 6-bromo-2-(2-chlorophenyl)-N-cyclohexylimidazo[1,2-a]pyridin-3-amine], for which the results for the IC50 in assay [2] and in assay [3] were 2190 nM and 12.2 µM, respectively.
Regarding `Clc1ccccc1-c1nc2cccc(Cl)n2c1NC1CCCCC1` [Compound 104, 5-chloro-2-(2-chlorophenyl)-N-cyclohexylimidazo[1,2-a]pyridin-3-amine], inhibition in assay [3] was half-maximal at 3.74 µM (IC50).
`N#Cc1cccc2nc(-c3ccccc3Cl)c(NC3CCCCC3)n12` [Compound 116, 2-(2-chlorophenyl)-3-(cyclohexylamino)imidazo[1,2-a]pyridine-5-carbonitrile] yielded an IC50 in assay [3] of 3.47 µM.
`Clc1ccccc1-c1nc2ccccn2c1NC1CCCC1` [Compound 118, 2-(2-chlorophenyl)-N-cyclopentylimidazo[1,2-a]pyridin-3-amine]: in assay [2], the IC50 was determined as 2190 nM.
With `Cc1ccc2nc(-c3ccccc3Cl)c(NC3CCCCC3)n2c1` [Compound 163, 2-(2-chlorophenyl)-N-cyclohexyl-6-methylimidazo[1,2-a]pyridin-3-amine], the IC50 in assay [3] was 5.39 µM.
For `Cc1cccc2nc(-c3ccccc3Cl)c(NC3CCCCC3)n12` [Compound 166, 2-(2-chlorophenyl)-N-cyclohexyl-5-methylimidazo[1,2-a]pyridin-3-amine], in assay [3], it took 1.55 µM to reach half-maximal inhibition (IC50).
In assay [3], `Cc1cccn2c(NC3CCCC3)c(-c3ccccc3Cl)nc12` [Compound 170, 2-(2-chlorophenyl)-N-cyclopentyl-8-methylimidazo[1,2-a]pyridin-3-amine] came in with an IC50 of 15.9 µM.
`Cc1cccc2nc(-c3ccccc3Cl)c(NC3CCCC3)n12` [Compound 171, 2-(2-chlorophenyl)-N-cyclopentyl-5-methylimidazo[1,2-a]pyridin-3-amine] yielded an IC50 in assay [3] of 1.43 µM.
In the case of `Cc1ccnc2c1NC(=O)c1cccnc1N2C1CC1` [Nevirapine, reference compound], the results for the IC50 in assay [2] and in assay [1] were 100 nM and 33 nM, respectively.
